According to the NIST ThermoML archive (doi:10.1016/j.jct.2016.03.010):

Test: mn = molality of the nth substance listed, in mol/kg
Details: 101 kPa, Liquid; for viscosity: Capillary tube (Ostwald / Ubbelohde) method; for mass density: Vibrating tube method

O=C(O)c1cccnc1 [3-carboxylpyridine] + O
Details | mass density, 298.15 K [kg/m3] | mass density, 308.15 K [kg/m3] | mass density, 318.15 K [kg/m3] | viscosity, 298.15 K [mPa·s] | viscosity, 308.15 K [mPa·s] | viscosity, 318.15 K [mPa·s]
m1 = 0.0202 | 997.92 | 994.89 | 991.06 | 0.8951 | 0.7224 | 0.5972
m1 = 0.0365 | 998.6 | 995.55 | 991.69 | 0.8988 | 0.725 | 0.5992
m1 = 0.0529 | 999.27 | 996.21 | 992.33 | 0.9015 | 0.7275 | 0.601
m1 = 0.0695 | 999.95 | 996.87 | 992.96 | 0.905 | 0.7308 | 0.6051
m1 = 0.0863 | 1000.62 | 997.52 | 993.59 | 0.9088 | 0.734 | 0.6074
m1 = 0.1032 | 1001.3 | 998.17 | 994.23 | 0.9119 | 0.7368 | 0.6094
